Data from BindingDB's records for doi:10.1016/s0960-894x(99)00489-8 (Glaxowellcome Medicines Research Centre, 1999).
pIC50: −log10 of the molar value.

Tests used:
[1] = target: Human cytomegalovirus protease (assemblin) (Human herpesvirus 5); assay: Inhibitory activity against HCMV protease by HPLC assay
[2] = target: Human cytomegalovirus protease (assemblin) (Human herpesvirus 5); assay: Inhibitory activity against HCMV protease by SPA assay
[3] = target: Human cytomegalovirus protease (assemblin) (Human herpesvirus 5); assay: Inhibitory activity against HCMV protease by HPLC assay; remark: listed apart in the source

SMILES | pIC50 [1] | pIC50 [2] | pIC50 [3]
CC(=O)C(C(C)=O)C1=C(Cl)C(=O)c2ccccc2C1=O [2-(1-Acetyl-2-oxo-propyl)-3-chloro-[1,4]naphthoquinone] | 6.14 | 6.10 | 
CC(=O)C(C(=O)OC(C)C)C1=C(Cl)C(=O)c2ccccc2C1=O (configuration not stated) [2-(3-Chloro-1,4-dioxo-1,4-dihydro-naphthalen-2-yl)-3-oxo-butyric acid isopropyl ester] | 5.04 | 5.57 | 
CC(=O)C(C(=O)OCc1ccccc1)C1=C(Cl)C(=O)c2ccccc2C1=O (configuration not stated) [2-(3-Chloro-1,4-dioxo-1,4-dihydro-naphthalen-2-yl)-3-oxo-butyric acid benzyl ester] | 6.15 | 6.14 | 
CCOC(=O)C(C(C)=O)C1=C(Cl)C(=O)c2ccccc2C1=O (configuration not stated) [2-(3-Chloro-1,4-dioxo-1,4-dihydro-naphthalen-2-yl)-3-oxo-butyric acid ethyl ester] | 5.32 | 5.84 | 

Next, values leading:

pIC50 [1] | pIC50 [2] | pIC50 [3] | SMILES
 |  | 3.83 | COC(=O)CC1=C(Cl)C(=O)c2ccccc2C1=O [(3-Chloro-1,4-dioxo-1,4-dihydro-naphthalen-2-yl)-acetic acid methyl ester]
 |  | 3.96 | O=C1C(OC2CCCCC2)=C(C2CCCCC2)C(=O)c2ccccc21 [2-Cyclohexyl-3-cyclohexyloxy-[1,4]naphthoquinone]
 |  | 4.17 | O=C1C(Cl)=C(C2CCCCCC2)C(=O)c2ccccc21 [2-Chloro-3-cycloheptyl-[1,4]naphthoquinone]
 |  | 3.82 | CC1(C)CC(=O)C(C2=C(Cl)C(=O)c3ccccc3C2=O)C(=O)C1 [2-Chloro-3-(4,4-dimethyl-2,6-dioxo-cyclohexyl)-[1,4]naphthoquinone]
